Experimental findings from patent US9938245B2 (THE TRUSTEES OF COLUMBIA UNIVERSITY IN THE CITY OF NEW YORK, priority 2014, dated 2018) are described below.

pIC50: −log10 of the molar value.

For data set [1], the system named is HT-1080 tumor. Description: HT-1080 tumor formation, mouse xenograft model. The note with it: PE 40 mg/kg SC then 30 mg/kg tail vein; erastin SC. Type of data set: in vivo, athymic nude mice. The method, then:
The images show representative tumors in live mice from each treatment group.
Athymic nude mice (8 weeks, Charles River) were injected with 4 million HT-1080 cells subcutaneously (SC). […] Two days later, the SC injection was repeated. Three days later, […] of vehicle or 30 mg/kg PE were administered to the mice through a tail vein. The tail vein injection was repeated three times more, once every other day, before the final tumor size was measured in both groups.
Instead, erastin was injected through the SC route using the same schedule as PE until the tumor size was measured.

For data set [2] the following is noted: mouse.
The test system of data set [3] is BJeH, BJeHLT, BJeLR, and DRD. Description: RSL testing in 4 BJ-derived cell lines. Type of data set: cell-based, human.
In data set [4] the target is T1, system xc− (Homo sapiens, UniProt Q9UPY5).
T1 sequence (Q9UPY5 1-501): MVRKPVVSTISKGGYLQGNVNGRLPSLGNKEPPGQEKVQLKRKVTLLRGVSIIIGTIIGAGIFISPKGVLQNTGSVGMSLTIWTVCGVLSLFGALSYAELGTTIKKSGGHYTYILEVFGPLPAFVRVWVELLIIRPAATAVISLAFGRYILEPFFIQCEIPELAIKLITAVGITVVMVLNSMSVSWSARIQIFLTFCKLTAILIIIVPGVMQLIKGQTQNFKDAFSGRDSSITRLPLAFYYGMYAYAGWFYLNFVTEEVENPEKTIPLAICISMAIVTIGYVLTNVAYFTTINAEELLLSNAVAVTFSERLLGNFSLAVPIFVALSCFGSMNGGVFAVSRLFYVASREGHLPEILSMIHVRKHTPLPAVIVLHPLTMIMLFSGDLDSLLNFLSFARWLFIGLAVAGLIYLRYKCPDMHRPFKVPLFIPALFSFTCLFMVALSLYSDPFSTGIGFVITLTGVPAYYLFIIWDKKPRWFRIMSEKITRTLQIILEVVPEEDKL
T1 sequence (P08195 1-529 partner): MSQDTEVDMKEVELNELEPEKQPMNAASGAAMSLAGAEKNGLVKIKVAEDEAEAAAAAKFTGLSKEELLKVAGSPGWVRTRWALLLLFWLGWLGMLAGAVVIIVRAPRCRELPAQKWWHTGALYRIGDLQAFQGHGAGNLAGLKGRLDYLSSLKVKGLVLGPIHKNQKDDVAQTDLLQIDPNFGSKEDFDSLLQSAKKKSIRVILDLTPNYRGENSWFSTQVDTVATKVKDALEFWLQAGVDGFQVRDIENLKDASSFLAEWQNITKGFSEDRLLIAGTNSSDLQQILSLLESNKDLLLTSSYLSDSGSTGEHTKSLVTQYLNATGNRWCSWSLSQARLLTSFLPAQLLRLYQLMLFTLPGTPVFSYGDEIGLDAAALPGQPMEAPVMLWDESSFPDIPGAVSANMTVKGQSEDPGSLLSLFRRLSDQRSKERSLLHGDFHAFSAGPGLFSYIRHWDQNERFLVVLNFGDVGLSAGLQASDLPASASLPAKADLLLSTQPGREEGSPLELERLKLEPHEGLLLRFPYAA
Description: Glutamate release assay (system xc− activity). The note with it: read-out: IC50 glutamate release; CCF-STTG1 human astrocytoma cells, 2 hour incubation.

In data set [5] the test system is BJeLR. Description: Concentration-dependent growth inhibition (alamar blue), isogenic BJ cell lines. It counts as cell-based, human.
Data set [6] concerns HT-1080 cells. Description: Modulatory profiling with lethal molecules and cell death modulators. Type of data set: cell-based, human.
The subject of data set [7] is HT1080. Description: Concentration-dependent growth inhibition (alamar blue), HT1080. It counts as cell-based, human. The conditions noted are these: 2 days. As to the method: Assay plates were prepared by seeding either BJ-derived cell lines or HT-1080 cells at 1,500 cells per well concentration in 36 μL growth medium. Cells in the assay plates were treated with compounds by transferring 4 μL volume from the compound plate. The final concentration of compound was typically 30 μM to 0.9 nM in this 16-point, 2-fold dilution series. Assay plates were returned to the culture incubator and maintained for 2 days before adding alamar blue. […] Plates were incubated further for 16 hours to allow reduction of alamar blue, which results in the generation of red fluorescence. The fluorescence intensity was determined using a Victor 3 plate reader (Perkin Elmer) with a 535 nm excitation filter and a 590 nm emission filter.
Percent growth inhibition (% GI) was calculated from the following formula using the alamar blue fluorescence intensity values. % GI=100*(1−(X−N)/(P−N)) X, cells treated with lethal compound; N, no cells—growth media only; P, no lethal compound—cells only.
The concentration-dependent curves were generated using Prism software. Percent growth inhibition, measured using alamar blue is shown. Error bars indicate one standard deviation of triplicate data.
The results are shown in FIG. 17 and in Table 7 below.
(The colour change of resazurin is a common sign of viable cells or microbes.)

Data set [8] relates to lipid peroxides. Description: Lipid peroxide detection using BODIPY-C11. It counts as cell-based. The conditions noted are these: BJeLR and other BJ-derived cells.
The test system of data set [9] is GFP-ALOX5. Description: GFP-ALOX5 translocation assay. Type of data set: cell-based, human.
For data set [10], the system named is cellular GSH. Description: GSH depletion assay. Type of data set: cell-based. The note with it: BJeLR cells, lethal RSL3 dose.

For `CC(C)Oc1ccc(CN2CCNCC2)cc1-n1c(CN2CCN(C(=O)COc3ccc(Cl)cc3)CC2)nc2ccccc2c1=O` [PE, piperazine erastin], the “preventing HT-1080 tumor formation” value in data set [1] was “improved efficacy over erastinin (ERA)”. The “Half-life in liver microsomes” value in data set [2] is on record as 55 min. The “RSL phenotype (selective lethality in oncogenic-RAS cells)” value in [3] is on record as “retained the RSL phenotype”. In addition, the pIC50 (as a rule, the IC50 on a negative log10 scale, so that one unit is a factor of ten) was 6.10 in data set [4]; 6.52 in data set [5] (2 days, alamar blue); 5.92 in [7]. For the same compound, the “Selectivity (IC50BJeH/IC50BJeLR)” value in [5] was 3. Besides, the “form of cell death (modulatory profile)” value in data set [6] is reported as “induced a similar form of cell death as erastin”.
On to `COC(=O)c1ccc([C@@H]2c3[nH]c4ccccc4c3C[C@@H](C(=O)OC)N2C(=O)CCl)cc1` [RSL3], for which the “generation of lipid peroxides (BODIPY-C11)” value in data set [8] was “generation of lipid peroxides”. In addition, in [3], the “RSL phenotype (selective lethality in oncogenic-RAS cells)” value was “exhibited selective lethality in BJeLR cells”. Besides, the “translocation of GFP-ALOX5 to the nuclear membrane” value in data set [9] is “caused GFP-ALOX5 translocation to the nuclear membrane in BJeLR cells”. The “cellular GSH level” value in data set [10] is recorded as “remained unaffected”.
